{"source": "patent US4680382A", "about": "“Analogues of actinomycin D” (priority 1986, dated 1987)", "key": {"[1]": {"system": "B16 melanoma", "assay": "In vivo antitumor activity against B16 melanoma", "parameters": "species or system BDF1 mice", "conditions": "for % ILS / surv (survivors on day 65/total injected) / MST (range): at optimal dose; for MST (range): control 29 (20-48); for optimal dose: ip, days 1, 5, 9"}, "[2]": {"system": "DNA", "assay": "Thermal denaturation of DNA (ΔTm)", "type": "binding", "experimental": "(§1) The \"reverse\" analogues bind to calf-thymus DNA, but the spectrophotometrically determined binding (Kapp and Bapp, equilibrium binding values) constants are found to be lower than those of AMD. The binding is also measured by thermal denaturation of DNA.\n(§2) The equilibrium binding constants (Kapp and Bapp) of the \"reverse\" methyl 7a and the \"reverse\" phenyl 8a were determined from the Scatchard plots of binding isotherms; the Scatchard plots are produced according to the previously described methods using calf-thymus DNA [Sengupta et al, Biochem. Biophys. Acta 521, 89 (1978)]. The Kapp values are 2.5×10^6 and 2.3×10^6 M^-1, respectively; corresponding Bapp values are 0.038 and 0.036. […] But, these \"reverse\" analogues associate with DNA less strongly; their frequency of binding is also lower compared to that of AMD. However, the \"reverse\" analogues fail to cause any measurable change in the ratio of the intrinsic viscosity (γ) of DNA with the increasing ratios of [ligand]/DNA base pair (r), even when low molecular weight DNAs (0.5×10^5 to 1.0×10^5) were employed.\n(§3) Melting points are determined on a Thomas-Hoover melting point apparatus at a heating rate of 2° C./min. Thin-layer chromatography was performed on silica gel plates (Brinkmann Instrument Inc.). Solvent systems were (A) EtOAc-acetone (4:1), (B) CHCl3 -MeOH (9:1) and (C) Cifferri, the organic phase of the mixture EtOAc-MeOH-H2 O (20:1:20). High-performance liquid chromatography was carried out on a Varian Model 5020 gradient liquid chromatograph equipped with a CD-111L chromatography data system and fitted with a Varian reversed-phase C18 column with the following solvent systems: I, CH3 CN-5 mM NH4 OAc buffer, pH 6.4 (68:32 isocratic), flow rate 1.5 mL/min; II, 65-95% water-methanol gradient for 70 min, 1 mL/min; III, 10-90% H2 O-MeOH gradient for 120 min, 1 mL/min, with UV-visible variable- and fixed-wavelength dual detectors at 254, 440, 470 and 520 nm. IR spectra were obtained on a Perkin-Elmer Model 237 Infra Cord with KBr micropellets or in chloroform solutions. UV-visible spectra were obtained on a Gilford 250 spectrophorometer, which, with the addition of a base-line reference compensator (Analog Multiplexer 5053) and thermoprogrammer, auto four cell programmer and thermoelectric cell holder 2577, were used to obtain thermal denaturation curves. Specific rotation values were determined in chloroform solutions with a Cary 60 spectropolarimeter. NMR spectra were obtained in a JEOL FQ-90 MHz spectrometer equipped with Fourier transform. EPR spectra analyses were recorded in a Varian E-9 EPR spectrometer. All elemental analyses were within ±0.4%."}, "[3]": {"system": "liver microsomes", "assay": "EPR detection of free-radical intermediates with liver microsomes and NADPH (anaerobic)", "type": "biochemical", "conditions": "NADPH, potassium phosphate buffer", "experimental": "No free-radical intermediates were detected in the absence of enzyme or substrates.\nas §3"}, "[4]": {"system": "calf-thymus DNA", "assay": "Equilibrium binding to calf-thymus DNA, Scatchard plots of binding isotherms (spectrophotometric)", "conditions": "Scatchard plot", "experimental": "as §1, §2"}, "[5]": {"system": "rat hepatic microsomes", "assay": "Stimulation of adrenochrome formation (superoxide generation) in rat hepatic microsomal incubations", "conditions": "for adrenochrome formation: 480 nm, 37° C., no more than 100 μM drug, basal 2.11 ± 0.11; for adrenochrome formation / percentage stimulation of adrenochrome formation over basal rate: no SOD; for adrenochrome formation in presence of SOD: SOD (superoxide dismutase) 5 μg/mL added"}, "[6]": {"system": "CCRF-CEM human lymphoblastic leukemic cells", "assay": "In vitro cytotoxicity against CCRF-CEM cells", "type": "cell-based", "conditions": "48 hr"}}, "note": "*1 amine or outer side, *2 acyl side, *3 side chain or, on linkers, in order; H or OH if unused. Where a SMILES comes first, the peptide text is derived from it. Bridges are numbered along the chain shown (N, C = ends). Roman numbers before positions name the chains, in order. [ ]: non-standard residue; d: D form. Actinocin(9to1) = Cc1c2oc3c(C)ccc(C(=O)[*:1])c3nc-2c(C(=O)[*:2])c(N)c1=O; NMeV = CN[C@H](C(=O)O)C(C)C; Sar = CNCC(=O)O", "data": [{"smiles": "Cc1c2oc3c(C)ccc(C(=O)N[C@@H]4C(=O)N[C@H](C(C)C)C(=O)N5CCC[C@H]5C(=O)N(C)CC(=O)N(C)[C@@H](C(C)C)C(=O)O[C@@H]4C)c3nc-2c(C(=O)N[C@@H]2C(=O)N[C@H](C(C)C)C(=O)N3CCC[C@H]3C(=O)N(C)CC(=O)N(C)[C@@H](C(C)C)C(=O)O[C@@H]2C)c(N)c1=O", "note": "[AMD, Actinomycin D] (I: T[dV]P[Sar][NMeV] / II: T[dV]P[Sar][NMeV]; ester I:1-I:C, II:1-II:C; linker I:N-II:N via Actinocin(9to1))", "values": [{"measurement": "% ILS", "setting": "[1]", "result": 48, "unit": "%"}, {"measurement": "surv (survivors on day 65/total injected)", "setting": "[1]", "result": "2/9"}, {"measurement": "MST (range)", "setting": "[1]", "result": "43 (36-54) days"}, {"measurement": "optimal dose", "setting": "[1]", "result": 250, "unit": "μg/kg per inj"}, {"measurement": "ΔTm (DNA melting temperature)", "setting": "[2]", "result": "7.1±0.15", "unit": "°C"}, {"measurement": "free-radical intermediate detected by EPR", "setting": "[3]", "result": "free-radical intermediate with broad resonance peaks was detected"}, {"measurement": "Bapp (equilibrium binding value)", "setting": "[4]", "result": 0.108}, {"measurement": "Kapp (equilibrium binding constant)", "setting": "[4]", "result": "2.3e+07", "unit": "M⁻¹"}, {"measurement": "adrenochrome formation", "setting": "[5]", "result": "2.29 ± 0.33 nmol min^-1 (mg of protein)^-1"}, {"measurement": "adrenochrome formation in presence of SOD", "setting": "[5]", "result": "inhibited"}, {"measurement": "percentage stimulation of adrenochrome formation over basal rate", "setting": "[5]", "result": 8.5, "unit": "%"}, {"measurement": "in vitro (CCRF-CEM) ID50", "setting": "[6]", "result": 50, "unit": "nM"}]}, {"smiles": "Cc1nc2c(C(=O)NC3C(=O)NC(C(C)C)C(=O)N4CCCC4C(=O)N(C)CC(=O)N(C)C(C(C)C)C(=O)OC3C)c3nc4c(C(=O)NC5C(=O)NC(C(C)C)C(=O)N6CCCC6C(=O)N(C)CC(=O)N(C)C(C(C)C)C(=O)OC5C)c(N)c(=O)c(C)c-4oc3c(C)c2o1", "note": "[7a, 7-Amino-2,9,11-trimethyl-8H-8-oxooxazolo [4,5-b]phenoxazine 4,6-bis[carbonyl-L-threonyl-D-valyl-L-prolylsarcosyl-L-N-methylvaline-(threonine hydroxyl)] lactone]", "values": [{"measurement": "% ILS", "setting": "[1]", "result": 90, "unit": "%"}, {"measurement": "surv (survivors on day 65/total injected)", "setting": "[1]", "result": "3/9"}, {"measurement": "MST (range)", "setting": "[1]", "result": "55 (33-57) days"}, {"measurement": "optimal dose", "setting": "[1]", "result": 300, "unit": "μg/kg per inj"}, {"measurement": "ΔTm (DNA melting temperature)", "setting": "[2]", "result": "5.5±0.3", "unit": "°C"}, {"measurement": "free-radical intermediate detected by EPR", "setting": "[3]", "result": "Free-radical intermediates were also detected"}, {"measurement": "Bapp (equilibrium binding value)", "setting": "[4]", "result": 0.038}, {"measurement": "Kapp (equilibrium binding constant)", "setting": "[4]", "result": "2.5e+06", "unit": "M⁻¹"}, {"measurement": "adrenochrome formation", "setting": "[5]", "result": "6.04 ± 0.19 nmol min^-1 (mg of protein)^-1"}, {"measurement": "adrenochrome formation in presence of SOD", "setting": "[5]", "result": "inhibited"}, {"measurement": "percentage stimulation of adrenochrome formation over basal rate", "setting": "[5]", "result": 186, "unit": "%"}, {"measurement": "in vitro (CCRF-CEM) ID50", "setting": "[6]", "result": 110, "unit": "nM"}]}, {"smiles": "Cc1nc2c(C(=O)NC3C(=O)NC(C(C)C)C(=O)N4CCCC4C(=O)N(C)CC(=O)N(C)C(C(C)C)C(=O)OC3C)c3nc4c(C(=O)NC5C(=O)NC(C(C)C)C(=O)N6CCCC6C(=O)N(C)CC(=O)N(C)C(C(C)C)C(=O)OC5C)cc(=O)c(C)c-4oc3c(C)c2o1", "note": "(stereo not shown) [9a]", "values": [{"measurement": "% ILS", "setting": "[1]", "result": 55, "unit": "%"}, {"measurement": "surv (survivors on day 65/total injected)", "setting": "[1]", "result": "1/9"}, {"measurement": "MST (range)", "setting": "[1]", "result": "45 (32-55) days"}, {"measurement": "optimal dose", "setting": "[1]", "result": 750, "unit": "μg/kg per inj"}, {"measurement": "adrenochrome formation", "setting": "[5]", "result": "4.36 ± 0.21 nmol min^-1 (mg of protein)^-1"}, {"measurement": "adrenochrome formation in presence of SOD", "setting": "[5]", "result": "inhibited"}, {"measurement": "percentage stimulation of adrenochrome formation over basal rate", "setting": "[5]", "result": 106, "unit": "%"}]}, {"smiles": "Cc1c2oc3c(C)c(O)c(N)c(C(=O)NC4C(=O)NC(C(C)C)C(=O)N5CCCC5C(=O)N(C)CC(=O)N(C)C(C(C)C)C(=O)OC4C)c3nc-2c(C(=O)NC2C(=O)NC(C(C)C)C(=O)N3CCCC3C(=O)N(C)CC(=O)N(C)C(C(C)C)C(=O)OC2C)c(N)c1=O", "note": "(stereo not shown) [4a, 7-Hydroxy-8-amino-actinomycin D]", "values": [{"measurement": "% ILS", "setting": "[1]", "result": 96, "unit": "%"}, {"measurement": "surv (survivors on day 65/total injected)", "setting": "[1]", "result": "4/9"}, {"measurement": "MST (range)", "setting": "[1]", "result": "57 (33-61) days"}, {"measurement": "optimal dose", "setting": "[1]", "result": 300, "unit": "μg/kg per inj"}, {"measurement": "ΔTm (DNA melting temperature)", "setting": "[2]", "result": "7.9±0.2", "unit": "°C"}, {"measurement": "free-radical intermediate detected by EPR", "setting": "[3]", "result": "Free-radical intermediates were also detected"}, {"measurement": "Bapp (equilibrium binding value)", "setting": "[4]", "result": 1.3}, {"measurement": "Kapp (equilibrium binding constant)", "setting": "[4]", "result": "6.3e+07", "unit": "M⁻¹"}, {"measurement": "adrenochrome formation", "setting": "[5]", "result": "19.3 ± 1.04 nmol min^-1 (mg of protein)^-1"}, {"measurement": "adrenochrome formation in presence of SOD", "setting": "[5]", "result": "inhibited"}, {"measurement": "percentage stimulation of adrenochrome formation over basal rate", "setting": "[5]", "result": 815, "unit": "%"}, {"measurement": "in vitro (CCRF-CEM) ID50", "setting": "[6]", "result": 30, "unit": "nM"}]}]}
